Laboratory results reported in BigSolDB 2.1.

CCc1cccc(CC)c1/N=C(C)/C=C(/C)Nc1c(CC)cccc1CC
solubility (mole fraction)
Conditions | 268.15 K | 273.15 K | 278.15 K | 283.15 K | 288.15 K | 293.15 K | 298.15 K | 303.15 K | 308.15 K | 313.15 K
in THF | 0.134 | 0.147 | 0.164 | 0.186 | 0.213 | 0.246 | 0.282 | 0.319 | – | –
in diethyl ether | 0.0732 | 0.0961 | 0.123 | 0.152 | 0.184 | 0.215 | 0.248 | 0.283 | – | –
in ethanol | 0.00158 | 0.00186 | 0.0022 | 0.00258 | 0.00315 | 0.00369 | 0.00476 | 0.00595 | 0.00738 | 0.00964
in methanol | 0.0003 | 0.00037 | 0.00047 | 0.00058 | 0.00072 | 0.00089 | 0.0011 | 0.00138 | 0.00173 | 0.0022
in n-hexane | 0.0373 | 0.0478 | 0.0609 | 0.0769 | 0.0964 | 0.12 | 0.148 | 0.182 | 0.223 | 0.271
in toluene | 0.147 | 0.162 | 0.178 | 0.196 | 0.216 | 0.236 | 0.259 | 0.284 | 0.312 | 0.342
